Laboratory results from patent US6348461B1, “6,7-asymmetrically disubstituted quinoxalinecarboxylic acid derivatives, addition salts thereof, and processes for the preparation of both” (Kyorin Pharmaceutical Co., Ltd., priority 1997, dated 2002).

How the values were obtained:
AMPA receptor = experiment: Binding experiment to AMPA receptor ([3H]-AMPA displacement, crude synaptosome membrane preparations); set-up: species or system rats; conditions: crude synaptosome membranes from rat cerebral cortex; [3H]-AMPA 5 nM; potassium thiocyanate 100 mM; 30 minutes at 0° C.; Ki converted from IC50
Procedure: Binding Experiment to AMPA Receptor
After the reactions were stopped by suction filtration, the radio activity on the filter was measured with liquid scintillation counter. The specific binding of [^3H]-AMPA was determined by subtracting nonspecific binding level in the presence of glutamic acid (0.1 mM) from overall binding level.

| melting point | Ki (AMPA receptor) | SMILES |
| --- | --- | --- |
| 213.5 to 214.5 °C | 2040 nM | O=C(O)c1nc2cc(N3CCOCC3)c([N+](=O)[O-])cc2[nH]c1=O [Example 35, 3,4-Dihydro-7-morpholino-6-nitro-3-oxoquinoxaline-2-carboxylic Acid] |
| 199 to 201 °C (dec.) | 48.1 nM | O=C(Nc1cccc(Br)c1)OCc1cn(-c2cc3nc(C(=O)O)c(=O)[nH]c3cc2[N+](=O)[O-])ccc1=O [Example 123] |
| 230 to 232 °C (dec.) | 32.3 nM | O=C(Nc1ccccc1C(F)(F)F)OCc1cn(-c2cc3nc(C(=O)O)c(=O)[nH]c3cc2[N+](=O)[O-])cn1 [Example 101] |
